Test results: PMC3425833, “Synthesis, Urease Inhibition, Antioxidant, Antibacterial, and Molecular Docking Studies of 1,3,4-Oxadiazole Derivatives” (ISRN Pharmacology, 2012)
In brackets after ≈: the same amount, converted by molar mass. Like-named read-outs stand apart in the source and are kept apart here.

Key:
[1] = DPPH radical scavenging (antioxidant) assay; conditions: for IC50: DPPH 300 μM, half an hour at 37°C
Experimental: The free radical scavenging capacity of the compounds was measured by 1,1-diphenyl-2-picrylhydrazyl. Test compounds were allowed to react with stable free radical, 1,1-diphenyl-2-picrylhydrazyl radical (DPPH) for half an hour at 37°C. The concentration of DPPH was kept as 300 μM. The test samples were dissolved in DMSO while the DPPH solution was prepared in ethanol. After incubation, decrease in absorption was measured at 515 nm using microplate reader. Percent radical scavenging activity of samples was determined in comparison with a DMSO treated as control. Propyl gallate and 3-tert-Butyl-4-hydroxyanisole were used as standards.

Bacillus subtilis = test: Antibacterial activity, serial tube dilution MIC; assay type: cell-based; conditions: for MIC: Bacillus subtilis, read-out: MIC B. subtilus
Experimental: (§1) The antibacterial activity data is represented in Table 2. […] Ciprofloxacin was used as standard drug. The compounds were found active against bacterial strains (2 Gram positive bacteria, namely, Staphylococcus aureus, Bacillus subtilis, and 2 Gram negative bacteria namely Escherichia coli, Shigella flexneri) in variable concentration. The antibacterial activities of 1,3,4-oxadiazole derivatives were evaluated in vitro by serial tube dilution method. The compounds and standard drug ciprofloxacin were dissolved in N,N-dimethylformamide (DMF) to give a concentration of 5 μg/mL (stock solution). Necessary apparatus and test tubes set of capacity 5 mL was washed cleaned and completely dried. For the bacterial culture double strength nutrient broth was used. The culture media was made by dissolving 15 g of nutrient broth in 1 L of distilled water. Approximately, 1 mL of culture media was prepared and transferred to each test tube by micropipette and capped with non-adsorbent cotton plugs. The test tubes containing 1 mL culture media was sterilized in an autoclave at 121°C for 20 min at 15 psi pressure. Sub-culturing of bacteria was done by transferring a loopful of particular bacterial strain from standard bacterial agar to 10 mL sterilized nutrient broth aseptically in a laminar air flow cabinet. It was then incubated for a period of 24 h at 37°C in a B. O. D. incubator. Bacterial strain suspension was prepared, after 24 h incubation, by aseptically inoculating 0.2 mL of revived bacterial colony into 100 mL of 0.9% m/v saline. A series of 5 assay tubes for a single derivative against each bacterial strain was employed. A stock solution of each test derivative at concentration 5 μg/mL (containing 1 mL nutrient broth) was serially diluted to achieve concentrations of 2.5, 1.25, 0.625, 0.313, and 0.156 μg/mL. Then, 0.1 mL of normal saline suspension of revived bacteria was added to each test tube. The inoculated tubes were incubated at 37°C for 24 h. The MIC (minimum inhibitory concentration) values were determined by subsequently checking for the absence of visual turbidity.

Escherichia coli = test: Antibacterial activity, serial tube dilution MIC; assay type: cell-based; conditions: for MIC: Escherichia coli, 24 h, read-out: MIC E. coli; for Antibacterial activity against E. coli compared to standard ciprofloxacin: in words
Experimental: as §1

Staphylococcus aureus = test: Antibacterial activity, serial tube dilution MIC; assay type: cell-based; conditions: for MIC: Staphylococcus aureus, read-out: MIC S. aureus; for Antibacterial activity against S. aureus compared to standard ciprofloxacin: in words
Experimental: as §1

Shigella flexneri = test: Antibacterial activity, serial tube dilution MIC; assay type: cell-based; conditions: for MIC: Shigella flexneri, read-out: MIC S. flexneri; for Antibacterial activity against S. flexneri compared to standard ciprofloxacin: in words
Experimental: as §1

Jack bean urease = Jack bean urease (Canavalia ensiformis, UniProt P07374); test: biochemical; assay type: biochemical; conditions: for Urease inhibitory activity in words: qualitative statement
[2] = average of three readings, 24 h at 37°C

Jack bean urease, sequence (P07374 whole entry, looked up): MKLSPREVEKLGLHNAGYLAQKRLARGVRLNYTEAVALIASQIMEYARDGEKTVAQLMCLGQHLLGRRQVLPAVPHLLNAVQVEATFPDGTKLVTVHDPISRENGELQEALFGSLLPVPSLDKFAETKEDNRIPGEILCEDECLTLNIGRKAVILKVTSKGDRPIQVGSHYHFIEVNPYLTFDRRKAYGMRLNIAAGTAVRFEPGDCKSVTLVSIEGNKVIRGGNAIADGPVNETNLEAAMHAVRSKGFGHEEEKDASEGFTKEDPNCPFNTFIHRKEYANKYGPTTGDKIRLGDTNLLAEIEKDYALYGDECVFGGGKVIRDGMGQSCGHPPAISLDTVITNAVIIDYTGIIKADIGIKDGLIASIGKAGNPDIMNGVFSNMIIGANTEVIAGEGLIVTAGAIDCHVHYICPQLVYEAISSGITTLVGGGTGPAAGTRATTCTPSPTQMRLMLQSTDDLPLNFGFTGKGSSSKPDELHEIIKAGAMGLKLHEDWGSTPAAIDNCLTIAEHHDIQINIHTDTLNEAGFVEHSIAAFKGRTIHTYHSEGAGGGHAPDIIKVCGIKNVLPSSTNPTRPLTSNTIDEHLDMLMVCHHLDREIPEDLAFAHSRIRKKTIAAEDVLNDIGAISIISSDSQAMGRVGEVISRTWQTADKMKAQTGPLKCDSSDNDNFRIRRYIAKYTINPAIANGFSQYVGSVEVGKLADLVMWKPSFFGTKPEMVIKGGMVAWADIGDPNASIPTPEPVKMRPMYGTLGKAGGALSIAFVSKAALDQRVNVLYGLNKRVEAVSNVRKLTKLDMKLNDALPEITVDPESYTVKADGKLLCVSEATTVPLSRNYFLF

SMILES	IC50 [1] [µM]	MIC (Bacillus subtilis; [2]) [µg/mL]	MIC (Escherichia coli; [2]) [µg/mL]	MIC (Staphylococcus aureus; [2]) [µg/mL]	MIC (Shigella flexneri; 24 h) [µg/mL]	IC50 (Jack bean urease) [µM]	Antibacterial activity against B. subtilus relative to ciprofloxacin (Bacillus subtilis) [fold]	MIC (Escherichia coli) [µg/mL]	MIC (Shigella flexneri; [2]) [µg/mL]	Antibacterial activity against S. flexneri compared to standard ciprofloxacin (Shigella flexneri)	Urease inhibitory activity in words (Jack bean urease)	MIC (Bacillus subtilis; 24 h) [µg/mL]	Antibacterial activity against S. aureus compared to standard ciprofloxacin (Staphylococcus aureus)	DPPH radical scavenging activity compared to standard propyl gallate ([1]; in words)	Antibacterial activity against E. coli compared to standard ciprofloxacin (Escherichia coli)	MIC (Staphylococcus aureus; 24 h) [µg/mL]
COc1ccc(O)c(C(C)(C)C)c1 [3-tert-Butyl-4-hydroxyanisole, reference compound]	28.2 ± 1.1	–	–	–	–	–	–	–	–	–	–	–	–	–	–	–
O=C(O)c1cn(C2CC2)c2cc(N3CCNCC3)c(F)cc2c1=O [Ciprofloxacin, reference compound]	–	0.625 (≈ 1.89 µM)	0.156 (≈ 0.471 µM)	0.156 (≈ 0.471 µM)	0.31 (≈ 0.936 µM)	–	–	–	–	–	–	–	–	–	–	–
COc1ccc(-c2n[nH]c(=S)o2)c(OC)c1OC [Compound 4a, 5-(2,3,4-Trimethoxyphenyl)-1,3,4-oxadiazole-2(3H)-thione]	123 ± 5.1	0.156 (≈ 0.581 µM)	–	1.25 (≈ 4.66 µM)	–	5.79 ± 0.3	4	0.313 (≈ 1.17 µM)	0.313 (≈ 1.17 µM)	equipotent activity	–	–	–	–	–	–
S=c1[nH]nc(-c2cc3ccccc3[nH]2)o1 [Compound 4b, 5-(1H-Indol-2-yl)-1,3,4-oxadiazole-2(3H)-thione]	107 ± 3.4	–	0.625 (≈ 2.88 µM)	0.156 (≈ 0.718 µM)	–	21.3 ± 0.7	–	–	0.313 (≈ 1.44 µM)	equipotent activity	nearly same activity	0.313 (≈ 1.44 µM)	equipotent activity	–	–	–
S=c1[nH]nc(Cc2ccc(Br)cc2)o1 [Compound 4c, 5-(4-Bromobenzyl)-1,3,4-oxadiazole-2(3H)-thione]	38 ± 4.1	–	2.5 (≈ 9.22 µM)	0.625 (≈ 2.31 µM)	–	11.8 ± 0.4	4	–	0.156 (≈ 0.575 µM)	two-fold activities	–	0.156 (≈ 0.575 µM)	–	more effective	considerably less active	–
S=c1[nH]nc(Cc2ccc(Cl)c(Cl)c2)o1 [Compound 4e, 5-(3,4-Dichlorobenzyl)-1,3,4-oxadiazole-2(3H)-thione]	59 ± 6.3	0.625 (≈ 2.39 µM)	0.156 (≈ 0.597 µM)	–	–	11.3 ± 0.6	–	–	0.313 (≈ 1.2 µM)	equipotent activity	–	–	–	–	equipotent	0.313 (≈ 1.2 µM)
Fc1ccccc1Cc1n[nH]c(=S)o1 [Compound 4f, 5-(2-Fluorobenzyl)-1,3,4-oxadiazole-2(3H)-thione]	46.6 ± 4.6	0.156 (≈ 0.742 µM)	0.313 (≈ 1.49 µM)	0.156 (≈ 0.742 µM)	–	3.27 ± 0.3	4	–	1.25 (≈ 5.95 µM)	–	–	–	equipotent activity	–	–	–
COc1ccc(CCc2n[nH]c(=S)o2)cc1 [Compound 4g, 5-(4-Methoxyphenethyl)-1,3,4-oxadiazole-2(3H)-thione]	50.8 ± 2.1	0.625 (≈ 2.64 µM)	0.156 (≈ 0.66 µM)	2.5 (≈ 10.6 µM)	–	5.61 ± 0.3	–	–	0.313 (≈ 1.32 µM)	equipotent activity	–	–	–	–	equipotent	–
S=c1[nH]nc(Cc2ccc(Cl)cc2Cl)o1 [Compound 4h, 5-(2,4-Dichlorobenzyl)-1,3,4-oxadiazole-2(3H)-thione]	57.8 ± 1.8	–	1.25 (≈ 4.79 µM)	0.625 (≈ 2.39 µM)	–	42.4 ± 1.2	4	–	0.156 (≈ 0.597 µM)	two-fold activities	weak inhibitory activities	0.156 (≈ 0.597 µM)	–	–	considerably less active	–
